Assay in all cases: Gel-based competitive ABPP in vitro, mouse brain membrane proteome
Common to all, as to type: biochemical
Conditions in all cases: mouse brain (mem) proteome

In one assay the target is T1, LYPLA1 (Mus musculus, UniProt P97823).
T1 construct: a complex proteome endogenously expressing LYPLA1/2 was incubated with test compound; from tissue; host or cells: mouse brain, membrane fraction
The procedure, abridged: (§1)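 Mouse brain membrane proteome (1 mg/mL in DPBS) was treated with compound (0.1-100 μM) for 30 min at 37 °C, then labeled with FP-Rh (2 μM final, 30 min, 25 °C). Bands were resolved by SDS-PAGE and scanned in-gel, with inhibition taken from band optical density versus DMSO. Targets counted as active or anti-targets at ≥50% inhibition.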

For the next assay, the target named is T2, LYPLA2 (Mus musculus, UniProt Q9WTL7).
T2 construct: a complex proteome endogenously expressing LYPLA1/2 was incubated with test compound; from tissue; host or cells: mouse brain, membrane fraction
In a few lines: as §1

A further assay has as its target T3, ABHD3 (Mus musculus, UniProt Q91ZH7).
T3 construct: from tissue; host or cells: mouse brain, membrane fraction
T3 sequence (Q91ZH7 1-411): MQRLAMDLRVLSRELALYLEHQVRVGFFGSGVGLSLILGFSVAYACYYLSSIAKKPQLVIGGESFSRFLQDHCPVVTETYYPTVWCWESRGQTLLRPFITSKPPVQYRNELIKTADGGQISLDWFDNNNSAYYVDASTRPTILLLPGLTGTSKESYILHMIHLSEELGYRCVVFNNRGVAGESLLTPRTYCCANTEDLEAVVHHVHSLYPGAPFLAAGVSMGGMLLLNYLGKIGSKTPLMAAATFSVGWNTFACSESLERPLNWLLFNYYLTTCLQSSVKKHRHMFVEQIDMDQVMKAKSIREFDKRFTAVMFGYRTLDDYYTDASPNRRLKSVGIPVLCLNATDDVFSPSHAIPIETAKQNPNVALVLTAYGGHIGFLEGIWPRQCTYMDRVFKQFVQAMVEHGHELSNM
How it is done: (§2) Assay Overview: The purpose of this assay was to determine whether test compounds can inhibit LYPLA1 and LYPLA2 in a complex proteomic lysate and to assess anti-target inhibition using a competitive activity-based proteomic profiling (ABPP) assay. In this assay, a complex proteome endogenously expressing LYPLA1/2 was incubated with test compound followed by reaction with a rhodamine-conjugated fluorophosphonate (FP-Rh) serine-hydrolase specific activity-based probe. The reaction products were separated by SDS-PAGE and visualized in-gel using a flatbed fluorescence scanner. The percentage activity remaining was determined by measuring the integrated optical density of the bands. […] Percent inhibition was calculated relative to a DMSO (no compound) control.
(§3) Protocol Summary: Mouse brain membrane proteome (50 μL reaction volume, 1 mg/mL in DPBS) was treated with 0.1-100 μM test compound (1 μL of a 50× stock in DMSO) for 30 minutes at 37° C. FP-Rh (1 μL of 50× stock in DMSO, Thermo #88318) was added to a final concentration of 2 μM. The reactions were incubated for 30 minutes at 25° C., quenched with 16 μL 4×SDS-PAGE loading buffer (reducing), separated by SDS-PAGE and visualized by in-gel fluorescent scanning. The percentage activity remaining was determined by measuring the integrated optical density of the bands relative to a DMSO-only (no compound) control. Assay Cutoff: Compounds with ≥50% inhibition of targets at 1 μM test compound concentration were considered active.

Another assay deals with T4, PLA2G7 (Mus musculus, UniProt Q60963).
T4 construct: from tissue; host or cells: mouse brain, membrane fraction
T4 sequence (Q60963 22-440): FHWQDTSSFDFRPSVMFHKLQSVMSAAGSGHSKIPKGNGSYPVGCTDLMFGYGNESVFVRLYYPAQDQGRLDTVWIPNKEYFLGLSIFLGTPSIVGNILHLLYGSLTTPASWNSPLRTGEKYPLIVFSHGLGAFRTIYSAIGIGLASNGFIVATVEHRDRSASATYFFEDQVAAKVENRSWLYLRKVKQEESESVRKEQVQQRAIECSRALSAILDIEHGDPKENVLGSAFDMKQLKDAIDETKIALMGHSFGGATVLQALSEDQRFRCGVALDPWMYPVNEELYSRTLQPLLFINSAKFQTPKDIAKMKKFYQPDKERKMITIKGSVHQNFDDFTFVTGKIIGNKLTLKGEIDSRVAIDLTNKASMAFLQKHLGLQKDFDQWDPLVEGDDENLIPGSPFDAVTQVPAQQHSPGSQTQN
How it is done:
as §2, §3

The values below come from patent US9981972B2, “N-hydroxy bicyclic hydantoin carbamates as tools for identification of serine hydrolase targets” (ABIDE THERAPEUTICS, INC., priority 2014, dated 2018).

T2 sequence (Q9WTL7 whole entry): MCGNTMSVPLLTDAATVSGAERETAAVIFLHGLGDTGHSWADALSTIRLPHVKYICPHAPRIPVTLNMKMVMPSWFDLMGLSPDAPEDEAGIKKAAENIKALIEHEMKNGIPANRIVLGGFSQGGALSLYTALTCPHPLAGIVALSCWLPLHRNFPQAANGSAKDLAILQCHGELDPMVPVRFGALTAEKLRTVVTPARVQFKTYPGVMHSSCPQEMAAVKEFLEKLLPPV
T1 sequence (P97823 whole entry): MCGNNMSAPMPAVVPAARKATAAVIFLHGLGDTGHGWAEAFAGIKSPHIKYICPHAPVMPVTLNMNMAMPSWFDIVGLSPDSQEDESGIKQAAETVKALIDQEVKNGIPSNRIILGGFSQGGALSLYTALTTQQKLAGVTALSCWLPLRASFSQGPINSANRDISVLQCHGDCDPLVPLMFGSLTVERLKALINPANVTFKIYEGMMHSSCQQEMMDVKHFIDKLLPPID

As for `C#CCOc1ccc(N2CCN(C(=O)ON3C(=O)[C@@H]4CN(Cc5ccc(Oc6ccccc6)cc5)CCN4C3=O)CC2)cc1` [Compound 44, (S)-1,3-dioxo-7-(4-phenoxybenzyl)-hexahydroimidazo[1,5-a]pyrazin-2(3H)-yl 4-(4-(prop-2-ynyloxy)phenyl)piperazine-1-carboxylate], the “LYPLA1 in vitro enzyme activity, % @ 10 μM” value (“LYPLA1 … % @ 10 μM” below) on LYPLA1 stood at 0% @. Also, at LYPLA2, the “LYPLA2 in vitro enzyme activity, % @ 10 μM” value (“LYPLA2 … % @ 10 μM” for short) was determined as 0% @. At ABHD3, the “ABHD3 in vitro enzyme activity, % @ 10 μM” value (from here on “ABHD3 … % @ 10 μM”) came out at 0% @. In addition, on PLA2G7, the “PLA2G7 in vitro enzyme activity, % @ 1 μM” value (from here on “PLA2G7 … % @ 1 μM”) is 100% @.

For `COc1ccc(N2CCN(C(=O)ON3C(=O)[C@H]4CN(CC5CCN(Cc6ccccc6)CC5)CCN4C3=O)CC2)cc1` [Compound 43, (R)-7-((1-benzylpiperidin-4-yl)methyl)-1,3-dioxo-hexahydroimidazo[1,5-a]pyrazin-2(3H)-yl 4-(4-methoxyphenyl)piperazine-1-carboxylate], the “LYPLA1 … % @ 10 μM” value on LYPLA1 was determined as 0% @. Further, the “LYPLA2 … % @ 10 μM” value on LYPLA2 is listed as 0% @. At ABHD3, the “ABHD3 … % @ 10 μM” value is on record as 0% @. Besides, at PLA2G7, the “PLA2G7 … % @ 1 μM” value worked out at 100% @.

For `C#Cc1ccc(CCC2CCN(C(=O)ON3C(=O)[C@H]4CN(C(=O)N5CCOCC5)CCN4C3=O)CC2)cc1` [Compound 49, (R)-7-(morpholine-4-carbonyl)-1,3-dioxo-hexahydroimidazo[1,5-a]pyrazin-2(3H)-yl 4-(4-ethynylphenethyl)piperidine-1-carboxylate], at LYPLA1, the “LYPLA1 in vitro enzyme activity, % @ 1 μM” value (shortened to “LYPLA1 … % @ 1 μM”) is on record as 75% @. On LYPLA2, the “LYPLA2 in vitro enzyme activity, % @ 1 μM” value (shortened to “LYPLA2 … % @ 1 μM”) is reported as 75% @. Further, on ABHD3, the “ABHD3 … % @ 10 μM” value came out at 0% @. The “PLA2G7 in vitro enzyme activity, % @ 10 μM” value (shortened to “PLA2G7 … % @ 10 μM”) on PLA2G7 was found to be 100% @.

For `C#CCOc1ccc(N2CCN(C(=O)ON3C(=O)[C@H]4CN(Cc5ccc(Oc6ccccc6)cc5)CCN4C3=O)CC2)cc1` [Compound 45, (R)-1,3-dioxo-7-(4-phenoxybenzyl)-hexahydroimidazo[1,5-a]pyrazin-2(3H)-yl 4-(4-(prop-2-ynyloxy)phenyl)piperazine-1-carboxylate], the “LYPLA1 … % @ 10 μM” value on LYPLA1 is reported as 0% @. Besides, on LYPLA2, the “LYPLA2 … % @ 10 μM” value was 0% @. Further, the “ABHD3 … % @ 10 μM” value at ABHD3 turned out to be 75% @. For the same molecule, the “PLA2G7 … % @ 1 μM” value at PLA2G7 came out at 100% @.

Take `O=C(ON1C(=O)C2CN(Cc3ccc(Oc4ccccc4)cc3)CCN2C1=O)N1CCC(c2ccccc2)CC1` (stereo not shown) [Compound 38, 1,3-dioxo-7-(4-phenoxybenzyl)hexahydroimidazo[1,5-a]pyrazin-2(3H)-yl 4-phenylpiperidine-1-carboxylate]: the “LYPLA1 in vitro enzyme activity, % @ 20 μM” value on LYPLA1 (20 μM) is 0% @. In addition, the “LYPLA2 in vitro enzyme activity, % @ 20 μM” value at LYPLA2 (20 μM) is given as 0% @.

Turning to `O=C(ON1C(=O)[C@@H]2CN(Cc3ccc(Br)cc3)CCN2C1=O)N1CCC(CCc2ccc(Cl)cc2)CC1` [Compound 40, (S)-7-(4-bromobenzyl)-1,3-dioxohexahydroimidazo[1,5-a]pyrazin-2(3H)-yl4-(4-chlorophenethyl)piperidine-1-carboxylate], the “LYPLA1 … % @ 10 μM” value at LYPLA1 is 50% @. Besides, the “LYPLA2 … % @ 10 μM” value on LYPLA2 came out at 50% @. Also, the “ABHD3 … % @ 10 μM” value at ABHD3 is reported as 0% @. Further, the “PLA2G7 … % @ 10 μM” value at PLA2G7 stood at 100% @.

Turning to `C#CCOc1ccc(N2CCN(C(=O)ON3C(=O)[C@H]4CN(CC5CCN(Cc6ccccc6)CC5)CCN4C3=O)CC2)cc1` [Compound 47, (R)-7-((1-benzylpiperidin-4-yl)methyl)-1,3-dioxo-hexahydroimidazo[1,5-a]pyrazin-2(3H)-yl 4-(4-(prop-2-ynyloxy)phenyl)piperazine-1-carboxylate], on LYPLA1, the “LYPLA1 … % @ 10 μM” value was 0% @. The “LYPLA2 … % @ 10 μM” value at LYPLA2 is recorded as 0% @. In addition, the “ABHD3 … % @ 10 μM” value on ABHD3 amounted to 0% @. Besides, the “PLA2G7 … % @ 1 μM” value at PLA2G7 is given as 100% @.

Consider `C#CCOc1ccc(N2CCN(C(=O)ON3C(=O)[C@@H]4CN(CC5CCN(Cc6ccccc6)CC5)CCN4C3=O)CC2)cc1` [Compound 46, (S)-7-((1-benzylpiperidin-4-yl)methyl)-1,3-dioxo-hexahydroimidazo[1,5-a]pyrazin-2(3H)-yl 4-(4-(prop-2-ynyloxy)phenyl)piperazine-1-carboxylate], for which the “LYPLA1 … % @ 10 μM” value at LYPLA1 is 50% @. The “LYPLA2 … % @ 10 μM” value at LYPLA2 is reported as 50% @. The “ABHD3 … % @ 10 μM” value on ABHD3 turned out to be 0% @. Moreover, at PLA2G7, the “PLA2G7 … % @ 1 μM” value was 100% @.

As to `C#Cc1ccc(CCC2CCN(C(=O)ON3C(=O)[C@@H]4CN(C(=O)N5CCOCC5)CCN4C3=O)CC2)cc1` [Compound 48, (S)-7-(morpholine-4-carbonyl)-1,3-dioxo-hexahydroimidazo[1,5-a]pyrazin-2(3H)-yl 4-(4-ethynylphenethyl)piperidine-1-carboxylate], the “LYPLA1 … % @ 1 μM” value on LYPLA1 was found to be 75% @. Also, the “LYPLA2 … % @ 1 μM” value on LYPLA2 is recorded as 75% @. Further, the “ABHD3 … % @ 10 μM” value on ABHD3 is on record as 0% @. For the same molecule, on PLA2G7, the “PLA2G7 … % @ 10 μM” value was 75% @.

Consider `O=C(ON1C(=O)[C@@H]2CN(C(=O)N3CCOCC3)CCN2C1=O)N1CCN(CCc2ccc(Cl)cc2)CC1` [Compound 41, (S)-7-(morpholine-4-carbonyl)-1,3-dioxo-hexahydroimidazo[1,5-a]pyrazin-2(3H)-yl 4-(4-chlorophenethyl)piperazine-1-carboxylate], for which the “LYPLA1 … % @ 10 μM” value on LYPLA1 was determined as 100% @. For the same molecule, the “LYPLA2 … % @ 10 μM” value at LYPLA2 came out at 100% @. The “ABHD3 … % @ 10 μM” value at ABHD3 is 0% @. The “PLA2G7 … % @ 10 μM” value at PLA2G7 is 0% @.

Regarding `C#Cc1ccc(CCC2CCN(C(=O)ON3C(=O)C4CN(C(=O)N5CCOCC5)CCN4C3=O)CC2)cc1` (stereo not shown) [Compound 53, 7-(morpholine-4-carbonyl)-1,3-dioxo-hexahydroimidazo[1,5-a]pyrazin-2(3H)-yl 4-(4-ethynylphenethyl)piperidine-1-carboxylate], at LYPLA1, the “LYPLA1 … % @ 1 μM” value is recorded as 75% @. Moreover, the “LYPLA2 … % @ 1 μM” value at LYPLA2 is listed as 75% @. Moreover, the “ABHD3 … % @ 10 μM” value on ABHD3 worked out at 0% @. Also, the “PLA2G7 … % @ 10 μM” value at PLA2G7 came out at 0% @.

Consider `COc1ccc(N2CCN(C(=O)ON3C(=O)C4CN(CC5CCN(Cc6ccccc6)CC5)CCN4C3=O)CC2)cc1` (stereo not shown) [Compound 52, 7-((1-benzylpiperidin-4-yl)methyl)-1,3-dioxo-hexahydroimidazo[1,5-a]pyrazin-2(3H)-yl 4-(4-methoxyphenyl)piperazine-1-carboxylate], for which the “LYPLA1 … % @ 10 μM” value at LYPLA1 turned out to be 0% @. Moreover, the “LYPLA2 … % @ 10 μM” value at LYPLA2 amounted to 0% @. The “ABHD3 … % @ 10 μM” value at ABHD3 was 0% @. Moreover, the “PLA2G7 … % @ 1 μM” value on PLA2G7 was 50% @.
